Experimental data reported in patent publication US6699857B1, “Tetrahydroquinolinyl 6-methyldihydrothiadiazinone derivatives and use thereof” (Bayer Aktiengesellschaft, priority 1999, dated 2004).

| Compound | melting point |
| --- | --- |
| CC1SC(=O)NN=C1c1ccc2c(c1)CCCN2 (stereo not drawn) [Example 2] | 176 to 178 °C |
| CCNC(=O)N1CCCc2cc(C3=NNC(=O)SC3C)ccc21 (stereo not drawn) [Example 3] | 122 to 124 °C (dec.) |
| CCCNC(=O)N1CCCc2cc(C3=NNC(=O)SC3C)ccc21 (stereo not drawn) [Example 4] | 151 to 153 °C |
| CCCCNC(=O)N1CCCc2cc(C3=NNC(=O)SC3C)ccc21 (stereo not drawn) [Example 5] | 133 to 134 °C |
| CC1SC(=O)NN=C1c1ccc2c(c1)CCCN2C(=O)Nc1ccccc1 (stereo not drawn) [Example 6] | 213 to 214 °C (dec.) |
| CC1SC(=O)NN=C1c1ccc2c(c1)CCCN2C(=O)Nc1ccc(Cl)cc1 (stereo not drawn) [Example 7] | 218 to 220 °C (dec.) |
| CC1SC(=O)NN=C1c1ccc2c(c1)CCCN2C(=O)Nc1cccc2ccccc12 (stereo not drawn) [Example 8] | 165 to 166 °C (dec.) |
| Cc1ccccc1NC(=O)N1CCCc2cc(C3=NNC(=O)SC3C)ccc21 (stereo not drawn) [Example 9] | 153 to 154 °C |
| CC1SC(=O)NN=C1c1ccc2c(c1)CCCN2C(=O)NCc1ccc(F)cc1 (stereo not drawn) [Example 10] | 158 to 160 °C |
| CC1SC(=O)NN=C1c1ccc2c(c1)CCCN2C(=O)c1ccco1 (stereo not drawn) [Example 11] | 159 to 161 °C |
| CC1SC(=O)NN=C1c1ccc2c(c1)CCCN2C(=O)c1ccccc1 (stereo not drawn) [Example 13] | 202 to 204 °C |
| CC1SC(=O)NN=C1c1ccc2c(c1)CCCN2C(=O)Cc1c(Cl)cccc1Cl (stereo not drawn) [Example 14] | 188 to 189 °C |
| CC1SC(=O)NN=C1c1ccc2c(c1)CCCN2C(=O)C1CCCCC1 (stereo not drawn) [Example 16] | 148 to 150 °C (dec.) |
| CC1SC(=O)NN=C1c1ccc2c(c1)CCCN2C(=O)CCc1ccccc1 (stereo not drawn) [Example 17] | 172 to 174 °C |
| CC1SC(=O)NN=C1c1ccc2c(c1)CCCN2C(=O)c1cccs1 (stereo not drawn) [Example 18] | 190 to 191 °C |
